Legend:
Aurora kinase A = molecular target: T1, Aurora kinase A (Homo sapiens, UniProt O14965); assay: Inhibition of Aurora A (unknown origin) using FAM-labeled peptide as substrate preincubated for 10 mins followed by substrate addition measured after 60 mins
T1 sequence (O14965 whole entry): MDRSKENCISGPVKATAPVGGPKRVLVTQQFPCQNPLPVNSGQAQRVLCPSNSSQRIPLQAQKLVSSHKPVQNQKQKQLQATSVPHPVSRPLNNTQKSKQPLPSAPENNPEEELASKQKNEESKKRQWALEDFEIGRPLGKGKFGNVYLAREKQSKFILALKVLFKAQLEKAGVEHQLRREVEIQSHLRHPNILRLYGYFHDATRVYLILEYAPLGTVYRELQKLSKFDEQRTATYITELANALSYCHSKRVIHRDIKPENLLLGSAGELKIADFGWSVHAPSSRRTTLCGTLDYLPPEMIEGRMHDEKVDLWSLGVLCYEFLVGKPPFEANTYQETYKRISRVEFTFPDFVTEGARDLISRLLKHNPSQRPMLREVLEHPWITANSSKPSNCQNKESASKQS

K562 = assay: Antiproliferative activity against human K562 cells assessed as cell viability after 72 hrs by CCK8 assay; format: functional, cell-based
MDA-MB-231 = assay: Antiproliferative activity against human MDA-MB-231 cells assessed as cell viability after 72 hrs by CCK8 assay; format: functional, cell-based
HeLa = assay: Antiproliferative activity against human HeLa cells assessed as cell viability after 72 hrs by CCK8 assay; format: functional, cell-based
A-431 = assay: Antiproliferative activity against human A431 cells assessed as cell viability after 72 hrs by CCK8 assay; format: functional, cell-based
HCT-116 = assay: Antiproliferative activity against human HCT116 cells assessed as cell viability after 72 hrs by CCK8 assay; format: functional, cell-based
DU-145 = assay: Antiproliferative activity against human DU145 cells assessed as cell viability after 72 hrs by CCK8 assay; format: functional, cell-based
[1] = Antiproliferative activity against human PANC1 cells assessed as cell viability after 72 hrs by CCK8 assay; format: functional, cell-based; settings: PANC-1, 72 h
MCF7 = assay: Antiproliferative activity against human MCF7 cells assessed as cell viability after 72 hrs by CCK8 assay; format: functional, cell-based
HL-60 = assay: Antiproliferative activity against human HL60 cells assessed as cell viability after 72 hrs by CCK8 assay; format: functional, cell-based
[2] = Antiproliferative activity against human SKBR3 cells assessed as cell viability after 72 hrs by CCK8 assay; format: functional, cell-based, SK-BR-3
[3] = Antiproliferative activity against human MOLT4 cells assessed as cell viability after 72 hrs by CCK8 assay; format: functional, cell-based, MOLT-4
U-937 = assay: Antiproliferative activity against human U937 cells assessed as cell viability after 72 hrs by CCK8 assay; format: functional, cell-based
NCI-N87 = assay: Antiproliferative activity against human NCI-N87 cells assessed as cell viability after 72 hrs by CCK8 assay; format: functional, cell-based
PC-3 = assay: Antiproliferative activity against human PC3 cells assessed as cell viability after 72 hrs by CCK8 assay; format: functional, cell-based
A549 = assay: Antiproliferative activity against human A549 cells assessed as cell viability after 72 hrs by CCK8 assay; format: functional, cell-based; settings: A549, 72 h
[4] = Homo sapiens, K562, 72 h, read-out: IC50
[5] = Homo sapiens, MDA-MB-231, 72 h, read-out: IC50
[6] = Homo sapiens, HeLa, 72 h, read-out: IC50
[7] = Homo sapiens, A-431, 72 h, read-out: IC50
[8] = Homo sapiens, HCT-116, 72 h, read-out: IC50
[9] = Homo sapiens, DU-145, 72 h, read-out: IC50
[10] = Homo sapiens, MCF7, 72 h, read-out: IC50
[11] = Homo sapiens, HL-60, 72 h, read-out: IC50
[12] = Homo sapiens, SK-BR-3, 72 h, read-out: IC50
[13] = Homo sapiens, MOLT-4, 72 h, read-out: IC50
[14] = Homo sapiens, U-937, 72 h, read-out: IC50
[15] = Homo sapiens, NCI-N87, 72 h, read-out: IC50
[16] = Homo sapiens, PC-3, 72 h, read-out: IC50

Compound: COC(=O)c1ccc(Nc2nc(Nc3cc(C)[nH]n3)cc(N3CCN(S(=O)(=O)c4ccc(C)cc4)CC3)n2)cc1
- IC50 (Aurora kinase A): 0.573 µM

Compound: Cc1cc(Nc2cc(N3CCN(C)CC3)nc(Nc3ccc(N4CCOCC4)cc3)n2)n[nH]1
- IC50 (Aurora kinase A): 0.112 µM

Compound: COC(=O)c1ccc(Nc2nc(Nc3cc(C)[nH]n3)cc(N3CCNCC3)n2)cc1
- IC50 (Aurora kinase A): 0.135 µM

Compound: COC(=O)c1ccc(Nc2nc(Nc3cc(C)[nH]n3)cc(N3C[C@@H](C)O[C@@H](C)C3)n2)cc1
- IC50 (Aurora kinase A): 0.113 µM

Compound: Cc1cc(Nc2cc(N3CCN(C)CC3)nc(Nc3ccc([N+](=O)[O-])cc3)n2)n[nH]1
- IC50 (K562; [4]): 0.137 µM
- IC50 (MDA-MB-231; [5]): 0.0844 µM
- IC50 (Aurora kinase A): 0.012 µM
- IC50 (HeLa; [6]): 0.331 µM
- IC50 (A-431; [7]): 0.15 µM
- IC50 (HCT-116; [8]): 1.63 µM
- IC50 (DU-145; [9]): 1.2 µM
- IC50 [1]: 0.442 µM
- IC50 (MCF7; [10]): 0.424 µM
- IC50 (HL-60; [11]): 0.0698 µM
- IC50 [2, 12]: 0.437 µM
- IC50 [3, 13]: 0.0181 µM
- IC50 (U-937; [14]): 0.0433 µM
- IC50 (NCI-N87; [15]): 3.88 µM
- IC50 (PC-3; [16]): 1.09 µM
- IC50 (A549): 0.723 µM

Compound: CC(=O)Nc1ccc(Nc2nc(Nc3cc(C)[nH]n3)cc(N3CCN(C)CC3)n2)cc1
- IC50 (Aurora kinase A): 0.118 µM

Compound: COC(=O)c1ccc(Nc2nc(NCCN3CCCCC3)cc(Nc3cc(C)[nH]n3)n2)cc1
- IC50 (Aurora kinase A): 0.228 µM

Compound: COC(=O)c1ccc(Nc2nc(Nc3cc(C)[nH]n3)cc(N3CCN(C)CC3)n2)cc1Cl
- IC50 (K562; [4]): 0.137 µM
- IC50 (MDA-MB-231; [5]): 0.124 µM
- IC50 (Aurora kinase A): 0.0077 µM
- IC50 (HeLa; [6]): 0.322 µM
- IC50 (A-431; [7]): 0.0833 µM
- IC50 (HCT-116; [8]): 1.59 µM
- IC50 (DU-145; [9]): 0.9 µM
- IC50 [1]: 0.508 µM
- IC50 (MCF7; [10]): 0.813 µM
- IC50 (HL-60; [11]): 0.129 µM
- IC50 [2, 12]: 2.16 µM
- IC50 [3, 13]: 0.0429 µM
- IC50 (U-937; [14]): 0.055 µM
- IC50 (NCI-N87; [15]): 3.62 µM
- IC50 (PC-3; [16]): 1.38 µM
- IC50 (A549): 1.59 µM

Compound: Cc1cc(Nc2cc(N3CCN(C)CC3)nc(Nc3ccc(C(=O)O)cc3)n2)n[nH]1
- IC50 (K562; k562): Not Active
- IC50 (MDA-MB-231; mda-mb-231): Not Active
- IC50 (Aurora kinase A): 0.032 µM
- IC50 (HeLa; hela): Not Active
- IC50 (A-431; a-431): Not Active
- IC50 (HCT-116; hct-116): Not Active
- IC50 (DU-145; du-145): Not Active
- IC50 [1]: 39.3 µM
- IC50 (MCF7; mcf7): Not Active
- IC50 (HL-60; hl-60): Not Active
- IC50 ([2]; sk-br-3): Not Active
- IC50 ([3]; molt-4): Not Active
- IC50 (U-937; u-937): Not Active
- IC50 (NCI-N87; nci-n87): Not Active
- IC50 (PC-3; pc-3): Not Active
- IC50 (A549): 19.7 µM

Compound: COC(=O)c1ccc(Nc2nc(NCCN3CCOCC3)cc(Nc3cc(C)[nH]n3)n2)cc1
- IC50 (Aurora kinase A): 0.072 µM

Compound: CNC(=O)c1ccc(Nc2nc(Nc3cc(C)[nH]n3)cc(N3CCN(C)CC3)n2)cc1
- IC50 (Aurora kinase A): 0.101 µM

Compound: Cc1cc(Nc2cc(N3CCOCC3)nc(Nc3ccc([N+](=O)[O-])cc3)n2)n[nH]1
- IC50 (K562; [4]): 0.355 µM
- IC50 (MDA-MB-231; [5]): 0.204 µM
- IC50 (Aurora kinase A): 0.011 µM
- IC50 (HeLa; [6]): 0.607 µM
- IC50 (A-431; [7]): 0.331 µM
- IC50 (HCT-116; [8]): 2.6 µM
- IC50 (DU-145; [9]): 0.631 µM
- IC50 [1]: 0.58 µM
- IC50 (MCF7; [10]): 1.07 µM
- IC50 (HL-60; [11]): 1.6 µM
- IC50 [2, 12]: 0.96 µM
- IC50 [3, 13]: 0.0607 µM
- IC50 (U-937; [14]): 0.21 µM
- IC50 (NCI-N87; [15]): 17.5 µM
- IC50 (PC-3; [16]): 0.967 µM
- IC50 (A549): 1.04 µM

Compound: COC(=O)c1ccc(Nc2nc(Nc3cc(C)[nH]n3)cc(N3CCN(S(C)(=O)=O)CC3)n2)cc1
- IC50 (K562; [4]): 0.556 µM
- IC50 (MDA-MB-231; [5]): 0.716 µM
- IC50 (Aurora kinase A): 0.034 µM
- IC50 (HeLa; [6]): 1.7 µM
- IC50 (A-431; [7]): 1.61 µM
- IC50 (HCT-116; [8]): 1.24 µM
- IC50 (DU-145; [9]): 0.791 µM
- IC50 [1]: 1.22 µM
- IC50 (MCF7; [10]): 1.99 µM
- IC50 (HL-60; [11]): 0.604 µM
- IC50 [2, 12]: 5.85 µM
- IC50 [3, 13]: 0.215 µM
- IC50 (U-937; [14]): 0.233 µM
- IC50 (NCI-N87; [15]): 10.9 µM
- IC50 (PC-3; [16]): 2.06 µM
- IC50 (A549): 1.73 µM

Compound: Cc1cc(Nc2cc(N3CCN(C)CC3)nc(Nc3ccc(C#N)cc3)n2)n[nH]1
- IC50 (K562; [4]): 0.0581 µM
- IC50 (MDA-MB-231; [5]): 0.0757 µM
- IC50 (Aurora kinase A): 0.008 µM
- IC50 (HeLa; [6]): 0.331 µM
- IC50 (A-431; [7]): 0.14 µM
- IC50 (HCT-116; [8]): 0.65 µM
- IC50 (DU-145; [9]): 1.27 µM
- IC50 [1]: 0.435 µM
- IC50 (MCF7; [10]): 0.372 µM
- IC50 (HL-60; [11]): 0.0218 µM
- IC50 [2, 12]: 0.883 µM
- IC50 [3, 13]: 0.0136 µM
- IC50 (U-937; [14]): 0.00903 µM
- IC50 (NCI-N87; [15]): 5.78 µM
- IC50 (PC-3; [16]): 0.977 µM
- IC50 (A549): 0.785 µM

Compound: Cc1cc(Nc2cc(N3CCN(C)CC3)nc(Nc3ccc(Cl)cc3)n2)n[nH]1
- IC50 (K562; [4]): 0.192 µM
- IC50 (MDA-MB-231; [5]): 0.138 µM
- IC50 (Aurora kinase A): 0.013 µM
- IC50 (HeLa; [6]): 0.619 µM
- IC50 (A-431; [7]): 0.162 µM
- IC50 (HCT-116; [8]): 1.37 µM
- IC50 (DU-145; [9]): 2.24 µM
- IC50 [1]: 0.455 µM
- IC50 (MCF7; [10]): 0.84 µM
- IC50 (HL-60; [11]): 0.0834 µM
- IC50 [2, 12]: 1.61 µM
- IC50 [3, 13]: 0.0531 µM
- IC50 (U-937; [14]): 0.0554 µM
- IC50 (NCI-N87; [15]): 7.47 µM
- IC50 (PC-3; [16]): 1.48 µM
- IC50 (A549): 0.631 µM

Compound: Cc1cc(Nc2cc(N3CCN(C)CC3)nc(Sc3ccc(NC(=O)C4CC4)cc3)n2)n[nH]1 [TOZASERTIB]
- IC50 (K562; [4]): 0.0791 µM
- IC50 (MDA-MB-231; [5]): 0.127 µM
- IC50 (HeLa; [6]): 2.93 µM
- IC50 (A-431; [7]): 0.24 µM
- IC50 (HCT-116; [8]): 4.32 µM
- IC50 (DU-145; [9]): 0.4 µM
- IC50 [1]: 4.13 µM
- IC50 (MCF7; [10]): 1.3 µM
- IC50 (HL-60; [11]): 0.0382 µM
- IC50 [2, 12]: 9.99 µM
- IC50 [3, 13]: 0.0212 µM
- IC50 (U-937; [14]): 0.036 µM
- IC50 (NCI-N87; [15]): 11.6 µM
- IC50 (PC-3; [16]): 5.81 µM
- IC50 (A549): 3.05 µM

Compound: Cc1cc(Nc2cc(N3CCN(C)CC3)nc(Nc3ccccc3Cl)n2)n[nH]1
- IC50 (Aurora kinase A): 0.147 µM

Compound: COC(=O)c1ccc(CNc2nc(Nc3cc(C)[nH]n3)cc(N3CCOCC3)n2)cc1
- IC50 (Aurora kinase A): 0.097 µM

Compound: Cc1cc(Nc2cc(N3CCN(C)CC3)nc(Nc3ccc(N4CC(=O)N(C5CC5)CC4=O)cc3)n2)n[nH]1
- IC50 (Aurora kinase A): 0.549 µM

— ChEMBL document CHEMBL3232730, “Design, synthesis and bioevaluation of N-trisubstituted pyrimidine derivatives as potent aurora A kinase inhibitors” (Eur J Med Chem, 2014)
